Experimental findings from patent US20240409585A1, “MACROCYCLIC IMMUNOMODULATORS” (priority 2021, published 2024) are described below.

Experiment [1] addresses T1, PE-labeled human PD-L1-Ig binding to Jurkat cell line over-expressing human PD-1 (Jurkat-PD-1) (Homo sapiens, UniProt Q15116).
T1 construct: expressed in transfected cells; host or cells: Jurkat
The experiment in a line: Jurkat-PD-1 Cell Binding High-Content Screening Assay (CBA): Method 1. To be noted: Jurkat-PD-1 cells, PE-labeled PD-L1-Ig; μM; read-out: CBA Method 1 μM.

Experiment [2] concerns the target T1, PE-labeled human PD-L1-Ig binding to Jurkat cell line over-expressing human PD-1 (Jurkat-PD-1). Kind of experiment: Jurkat-PD-1 Cell Binding High-Content Screening Assay (CBA): Method 2 (presence and absence of tween-20). As to conditions: Jurkat-PD-1 cells, PE-labeled PD-L1-Ig 20 nM; presence or absence of tween-20 not given; head μM; read-out: CBA Method 2 μM. An outline of the steps:
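Compounds incubated with Jurkat cells overexpressing human PD-1 for 2 h at 37° C, tested with and without tween-20 to flag aggregation. PE-labeled human PD-L1-Ig (20 nM final) added in DMEM/10% FCS; binding read by high-content imaging.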

Molecules are shown by their SMILES. Numbered stars: 1 amine (or outer) side, 2 acyl side, 3 side chain; on linkers, the order of the positions; unused ones are H or OH. Bridge positions count the residues as written; N and C are the ends. Square brackets hold non-standard residues; d marks the D form. Peptide text beside a SMILES is read from it. * marks the point of attachment. X10 = O=C(CCc1c[nH]cn1)NCc1cccc(C[C@H](N[*:1])C(=O)[*:2])c1; Bip(4'-NHAc) = CC(=O)Nc1ccc(-c2ccc(C[C@H](N)C(=O)O)cc2)cc1; Ala(morpholin-4-yl) = N[C@@H](CN1CCOCC1)C(=O)O; Phe(4-COOH) = N[C@@H](Cc1ccc(C(=O)O)cc1)C(=O)O; X4 = O=C([C@H](Cc1ccc2cc[nH]c2c1)N[*:1])[*:2]; Bip = N[C@@H](Cc1ccc(-c2ccccc2)cc1)C(=O)O; Phe(3-Me) = Cc1cccc(C[C@H](N)C(=O)O)c1; Cha = N[C@@H](CC1CCCCC1)C(=O)O; Carboxymethyl = O=C(O)C*; NMeA = CN[C@@H](C)C(=O)O; Orn = NCCC[C@H](N)C(=O)O; Dab = NCC[C@H](N)C(=O)O

T1 sequence (Q15116 25-288): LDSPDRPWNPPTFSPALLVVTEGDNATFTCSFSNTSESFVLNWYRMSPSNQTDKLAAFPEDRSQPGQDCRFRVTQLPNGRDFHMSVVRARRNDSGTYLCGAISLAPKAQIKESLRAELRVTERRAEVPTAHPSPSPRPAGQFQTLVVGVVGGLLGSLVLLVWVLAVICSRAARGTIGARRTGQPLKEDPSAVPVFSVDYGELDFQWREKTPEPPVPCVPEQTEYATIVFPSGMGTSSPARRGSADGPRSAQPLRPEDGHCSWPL

For the compound `Cc1cccc(C[C@@H]2NC(=O)[C@H](CC(=O)O)NC(=O)[C@H](Cc3ccc(OCC(=O)O)cc3)NC(=O)[C@H](Cc3cccc(CNC(=O)CCc4c[nH]cn4)c3)NC(=O)CSC[C@@H](C(=O)N[C@@H](CCN)C(N)=O)NC(=O)[C@H](CCCN)NC(=O)[C@H](C(C)C)NC(=O)[C@H](CC3CCCCC3)NC(=O)[C@H](CCN)NC(=O)[C@@H](CC(C)C)NC(=O)[C@H](C)N(C)C(=O)[C@H](CCC(N)=O)NC(=O)[C@H](Cc3ccc(-c4ccccc4)cc3)NC(=O)[C@H](Cc3ccc(C(=O)O)cc3)NC2=O)c1` [Example 5035] ({CH2CO}-[X10]Y(Carboxymethyl)D[Phe(3-Me)][Phe(4-COOH)][Bip]Q[NMeA][dL][Dab][Cha]V[Orn]C[Dab]-NH2; thioether N-14), the IC50 in experiment [1] was 0.0042 µM; in experiment [2], 0.0035 µM.
In the case of `Cc1cccc(C[C@@H]2NC(=O)[C@H](CC(=O)O)NC(=O)[C@H](Cc3ccc(OCC(=O)O)cc3)NC(=O)[C@H](CN3CCOCC3)NC(=O)CSC[C@@H](C(=O)N[C@@H](CCN)C(N)=O)NC(=O)[C@H](CCCN)NC(=O)[C@H](C(C)C)NC(=O)[C@H](CC3CCCCC3)NC(=O)[C@H](CCN)NC(=O)[C@@H](CC(C)C)NC(=O)[C@H](C)N(C)C(=O)[C@H](CCC(N)=O)NC(=O)[C@H](Cc3ccc(-c4ccccc4)cc3)NC(=O)[C@H](Cc3ccc4cc[nH]c4c3)NC2=O)c1` [Example 5037] ({CH2CO}-[Ala(morpholin-4-yl)]Y(Carboxymethyl)D[Phe(3-Me)][X4][Bip]Q[NMeA][dL][Dab][Cha]V[Orn]C[Dab]-NH2; thioether N-14), the IC50 was determined as 0.0138 µM in experiment [1] and 0.0304 µM in experiment [2].
On to `COC[C@@H]1NC(=O)CSC[C@@H](C(=O)N[C@@H](CCN)C(N)=O)NC(=O)[C@H](CCCN)NC(=O)[C@H](C(C)C)NC(=O)[C@H](CC2CCCCC2)NC(=O)[C@H](CCN)NC(=O)[C@@H](CC(C)C)NC(=O)[C@H](C)N(C)C(=O)[C@H](CCC(N)=O)NC(=O)[C@H](Cc2ccc(-c3ccccc3)cc2)NC(=O)[C@H](Cc2ccc(-c3ccc(NC(C)=O)cc3)cc2)NC(=O)[C@H](Cc2cccc(C)c2)NC(=O)[C@H](CC(=O)O)NC(=O)[C@H](Cc2ccc(OCC(=O)O)cc2)NC1=O` [Example 5056] ({CH2CO}-S(Me)Y(Carboxymethyl)D[Phe(3-Me)][Bip(4'-NHAc)][Bip]Q[NMeA][dL][Dab][Cha]V[Orn]C[Dab]-NH2; thioether N-14), for which the IC50 in experiment [1] amounted to 0.01 µM; in experiment [2], 0.0095 µM.
